Laboratory results reported in patent US9315490B2, “2,5-substituted pyrimidines” (Grünenthal GmbH, priority 2014, dated 2016).

Target: T1, human PDE4B1 (Homo sapiens, UniProt Q07343)
T1 construct: host or cells: Sf9 cells
Experiment: cAMP HTRF assay to determine the activity of hPDE4B1
Assay type: biochemical
Settings: inhibition of PDE4B at a test concentration of 1 μM; for Inhibition in %: 1 µM
Method: Biological Testing cAMP HTRF® Assay to Determine the Activity of hPDE4B1
The inhibiting effect of the compounds on the enzyme activity of human PDE4B1 was measured by the quantification of 5′-adenosine monophosphate (5′-AMP), which is formed from 3′,5′-cyclic adenosine monophosphate (cAMP). Human recombinant enzyme, expressed in Sf9 cells, and the HTRF (homogeneous time-resolved fluorescence) detection method were used in the assay.
The test compound or water (control) was mixed with the human recombinant PDE4B1 enzyme (4.8 U) in a buffer consisting of 44.4 mM tris-HCl, 5.28 mM MgCl2, 2.64 mM DTT and 0.044% Tween 20 (pH 7.8). After adding the cAMP enzyme substrate (final concentration 40 nM), the mixture was incubated for 30 minutes at room temperature. Then a fluorescence acceptor (Dye2 marked with cAMP), a fluorescence donor (anti-cAMP antibody marked with a europium cryptate) and the non-specific phosphodiesterase inhibitor IBMX (3-isobutyl-1-methylxanthine; final concentration 1 mM) were added. After 60 minutes the fluorescence transfer, which correlates with the amount of remaining cAMP, was measured with a microplate reader (Rubystar, BMG) at λex=337 nm, λem=620 nm and λem=665 nm. The enzyme activity was calculated from the quotient formed from the measured signal at 665 nm and that at 620 nm. The result was expressed as the percentage inhibition of enzyme activity of the control (without PDE4 inhibitor). The enzyme was omitted for measurement of the basal control. IC50 values (IC50=concentration causing a half-maximal inhibition of control specific activity) were derived from dose response measurements with eight different concentrations (n=2; N=1-3).
Literature: N. Saldou et al., Comparison of recombinant human PDE4 isoforms: interaction with substrate and inhibitors, Cell. Signal. Vol. 10, No. 6, 427-440, 1998

T1 sequence (Q07343 whole entry): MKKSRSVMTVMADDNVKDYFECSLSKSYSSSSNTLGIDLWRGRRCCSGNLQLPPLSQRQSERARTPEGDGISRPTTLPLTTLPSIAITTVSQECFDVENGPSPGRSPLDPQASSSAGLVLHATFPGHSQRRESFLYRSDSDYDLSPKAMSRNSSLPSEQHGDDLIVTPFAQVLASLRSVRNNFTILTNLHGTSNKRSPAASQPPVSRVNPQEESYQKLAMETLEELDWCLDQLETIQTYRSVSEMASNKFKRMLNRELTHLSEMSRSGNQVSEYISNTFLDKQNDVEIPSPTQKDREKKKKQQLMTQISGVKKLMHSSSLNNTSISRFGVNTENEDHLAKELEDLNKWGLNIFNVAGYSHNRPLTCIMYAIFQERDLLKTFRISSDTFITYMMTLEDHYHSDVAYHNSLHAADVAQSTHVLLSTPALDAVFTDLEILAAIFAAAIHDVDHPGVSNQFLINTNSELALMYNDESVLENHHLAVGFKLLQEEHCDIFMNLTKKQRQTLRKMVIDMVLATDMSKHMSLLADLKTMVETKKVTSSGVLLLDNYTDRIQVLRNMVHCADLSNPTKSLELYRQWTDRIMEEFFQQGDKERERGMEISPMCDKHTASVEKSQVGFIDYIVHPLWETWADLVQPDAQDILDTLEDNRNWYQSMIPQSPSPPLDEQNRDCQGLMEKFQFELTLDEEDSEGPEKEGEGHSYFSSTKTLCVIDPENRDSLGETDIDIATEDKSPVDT

Row | inhibition at 1 µM | Inhibition in % | SMILES
1 | 96% | – | C[S+]([O-])c1cn(-c2ncc(-c3cc(C#N)ccn3)cn2)c2cc(C(=O)N3CCOCC3)ccc12 (stereo not drawn) [Example 181, 2-(2-(3-(Methylsulfinyl)-6-(morpholine-4-carbonyl)-1H-indol-1-yl)pyrimidin-5-yl)isonicotinonitrile]
2 | 106% | – | COc1ccc(F)c(-c2cnc(-n3cc([S+](C)[O-])c4ccc(C(=O)N5CCNC(=O)C5)cc43)nc2)c1 (single isomer, unassigned) [Example 213, 4-(1-(5-(2-Fluoro-5-methoxyphenyl)pyrimidin-2-yl)-3-(methylsulfinyl)-1H-indole-6-carbonyl)piperazin-2-one]
3 | 92% | – | C[S+]([O-])c1cn(-c2ncc(-c3cc(C#N)ccc3F)cn2)c2cc(C(=O)N3CC[C@@H](N)C3)ccc12 (stereo partly drawn) [Example 225, 3-(2-(6-((R)-3-Aminopyrrolidine-1-carbonyl)-3-(methylsulfinyl)-1H-indol-1-yl)pyrimidin-5-yl)-4-fluorobenzonitrile]
4 | 77% | – | CNC(=O)c1ccc2c([S+](C)[O-])cn(-c3ncc(-c4ccccc4F)cn3)c2c1 (stereo not drawn) [Example 61, 1-(5-(2-Fluorophenyl)pyrimidin-2-yl)-N-methyl-3-(methylsulfinyl)-1H-indole-6-carboxamide]
5 | – | 70% | CC1CN(C(=O)c2ccc3c([S+](C)[O-])cn(-c4ncc(-c5ccccc5F)cn4)c3c2)CC(C)O1 (single isomer, unassigned) [Example 377, (2,6-Dimethylmorpholino)(1-(5-(2-fluorophenyl)pyrimidin-2-yl)-3-(methylsulfinyl)-1H-indol-6-yl)methanone]
6 | 0% | – | CN(C(=O)c1ccc2c([S+](C)[O-])cn(-c3ncc(-c4ccccc4F)cn3)c2c1)C1CCOCC1 (stereo not drawn) [Example 382, 1-(5-(2-Fluorophenyl)pyrimidin-2-yl)-N-methyl-3-(methylsulfinyl)-N-(tetrahydro-2H-pyran-4-yl)-1H-indole-6-carboxamide]
7 | 87% | – | CN(CCC(=O)O)C(=O)c1ccc2c([S+](C)[O-])cn(-c3ncc(-c4ccccc4F)cn3)c2c1 (stereo not drawn) [Example 369, 3-(1-(5-(2-Fluorophenyl)pyrimidin-2-yl)-N-methyl-3-(methylsulfinyl)-1H-indole-6-carboxamido)propanoic acid]
8 | 121% | – | Cc1ccc(F)c(-c2cnc(-n3cc(S(C)(=O)=O)c4ccc(C(=O)N5CC[C@@H](N)C5)cc43)nc2)c1 [Example 231, (R)-(3-Aminopyrrolidin-1-yl)(1-(5-(2-fluoro-5-methylphenyl)pyrimidin-2-yl)-3-(methylsulfonyl)-1H-indol-6-yl)methanone]
9 | 23% | – | C[S+]([O-])c1cn(-c2ncc(-c3ccccc3F)cn2)c2cc(C(=O)N3CCC4(COC4)C3)ccc12 (stereo not drawn) [Example 370, (1-(5-(2-Fluorophenyl)pyrimidin-2-yl)-3-(methylsulfinyl)-1H-indol-6-yl)(2-oxa-6-azaspiro[3.4]octan-6-yl)methanone]
10 | 104% | – | CS(=O)(=O)c1cn(-c2ncc(-c3ccccc3)cn2)c2cc(C(=O)N3CC[C@@H](N)C3)ccc12 [Example 228, (R)-(3-Aminopyrrolidin-1-yl)(3-(methylsulfonyl)-1-(5-phenylpyrimidin-2-yl)-1H-indol-6-yl)methanone]
11 | 106% | – | C[S+]([O-])c1cn(-c2ncc(-c3cccc(F)c3F)cn2)c2cc(C(=O)N3CCOCC3)ccc12 (stereo not drawn) [Example 30, (1-(5-(2,3-Difluorophenyl)pyrimidin-2-yl)-3-(methylsulfinyl)-1H-indol-6-yl)(morpholino)methanone]
12 | 98% | – | Cc1cccc(-c2cnc(-n3cc([S+](C)[O-])c4ccc(C(=O)N5CCOCC5)cc43)nc2)c1 (single isomer, unassigned) [Example 154, (3-(Methylsulfinyl)-1-(5-(m-tolyl)pyrimidin-2-yl)-1H-indol-6-yl)(morpholino)methanone]
13 | 95% | – | C[S+]([O-])c1cn(-c2ncc(-c3cc(F)ccn3)cn2)c2cc(C(=O)N3CCOCC3)ccc12 (stereo not drawn) [Example 182, (1-(5-(4-Fluoropyridin-2-yl)pyrimidin-2-yl)-3-(methylsulfinyl)-1H-indol-6-yl)(morpholino)methanone]
14 | 63% | – | C[S+]([O-])c1cn(-c2ncc(-c3ccccc3F)cn2)c2cc(C(=O)N3CCC[C@H](O)C3)ccc12 (stereo partly drawn) [Example 81, (1-(5-(2-Fluorophenyl)pyrimidin-2-yl)-3-(methylsulfinyl)-1H-indol-6-yl)((S)-3-hydroxypiperidin-1-yl)methanone]
15 | 71% | – | CO[C@@H]1CCN(C(=O)c2ccc3c([S+](C)[O-])cn(-c4ncc(-c5ccccc5F)cn4)c3c2)C1 (stereo partly drawn) [Example 82, (1-(5-(2-Fluorophenyl)pyrimidin-2-yl)-3-(methylsulfinyl)-1H-indol-6-yl)((R)-3-methoxypyrrolidin-1-yl)methanone]
16 | – | 36% | CC1CC(C)CN(C(=O)c2ccc3c([S+](C)[O-])cn(-c4ncc(-c5ccccc5F)cn4)c3c2)C1 (single isomer, unassigned) [Example 373, (3,5-Dimethylpiperidin-1-yl)(1-(5-(2-fluorophenyl)pyrimidin-2-yl)-3-(methylsulfinyl)-1H-indol-6-yl)methanone]
17 | 40% | – | CC1CC(C)CN(C(=O)c2ccc3c([S+](C)[O-])cn(-c4ncc(-c5ccccc5F)cn4)c3c2)C1 (single isomer, unassigned) [Example 372, (3,5-Dimethylpiperidin-1-yl)(1-(5-(2-fluorophenyl)pyrimidin-2-yl)-3-(methylsulfinyl)-1H-indol-6-yl)methanone]
18 | 103% | – | C[S+]([O-])c1cn(-c2ncc(-c3ccccc3)cn2)c2cc(C(=O)N3C[C@@H]4C[C@H]3CN4)ccc12 (stereo partly drawn) [Example 233, (1S,4S)-2,5-Diazabicyclo[2.2.1]heptan-2-yl(3-(methylsulfinyl)-1-(5-phenylpyrimidin-2-yl)-1H-indol-6-yl)methanone]
19 | 107% | – | COc1ccc(F)c(-c2cnc(-n3cc([S+](C)[O-])c4ccc(C(=O)N5CCOCC5)cc43)nc2)c1 (single isomer, unassigned) [Example 160, (1-(5-(2-Fluoro-5-methoxyphenyl)pyrimidin-2-yl)-3-(methylsulfinyl)-1H-indol-6-yl)(morpholino)methanone]
20 | 80% | – | C[S+]([O-])c1cn(-c2ncc(-c3ccc(F)cc3)cn2)c2cc(C(=O)N3CCOCC3)ccc12 (stereo not drawn) [Example 32, (1-(5-(4-Fluorophenyl)pyrimidin-2-yl)-3-(methylsulfinyl)-1H-indol-6-yl)(morpholino)methanone]
21 | 99% | – | Cc1cccc(-c2cnc(-n3cc([S+](C)[O-])c4ccc(C(=O)N5CCOCC5)cc43)nc2)n1 (stereo not drawn) [Example 180, (1-(5-(6-Methylpyridin-2-yl)pyrimidin-2-yl)-3-(methylsulfinyl)-1H-indol-6-yl)(morpholino)methanone]
22 | 68% | – | C[S+]([O-])c1cn(-c2ncc(-c3ccccc3F)cn2)c2cc(C(=O)N3CCOC(C)(C)C3)ccc12 (stereo not drawn) [Example 383, (2,2-Dimethylmorpholino)(1-(5-(2-fluorophenyl)pyrimidin-2-yl)-3-(methylsulfinyl)-1H-indol-6-yl)methanone]
23 | 54% | – | CN(C(=O)c1ccc2c([S+](C)[O-])cn(-c3ncc(-c4ccccc4F)cn3)c2c1)C1(CO)CC1 (stereo not drawn) [Example 170, 1-(5-(2-Fluorophenyl)pyrimidin-2-yl)-N-(1-(hydroxymethyl)cyclopropyl)-N-methyl-3-(methylsulfinyl)-1H-indole-6-carboxamide]
24 | 102% | – | Cc1cccc(-c2cnc(-n3cc([S+](C)[O-])c4ccc(C(=O)N5CC[C@@H](N)C5)cc43)nc2)c1 (stereo partly drawn) [Example 224, ((R)-3-Aminopyrrolidin-1-yl)(3-(methylsulfinyl)-1-(5-(m-tolyl)pyrimidin-2-yl)-1H-indol-6-yl)methanone]
25 | 0% | – | COCCN1CCN(C(=O)c2ccc3c([S+](C)[O-])cn(-c4ncc(-c5ccccc5F)cn4)c3c2)CC1 (stereo not drawn) [Example 392, (1-(5-(2-Fluorophenyl)pyrimidin-2-yl)-3-(methylsulfinyl)-1H-indol-6-yl)(4-(2-methoxyethyl)piperazin-1-yl)methanone]
26 | 86% | – | C[S+]([O-])c1cn(-c2ncc(-c3ccccc3F)cn2)c2cc(C(=O)N3CCCC3)ccc12 (stereo not drawn) [Example 51, (1-(5-(2-Fluorophenyl)pyrimidin-2-yl)-3-(methylsulfinyl)-1H-indol-6-yl)(pyrrolidin-1-yl)methanone]
27 | 30% | – | CN(CC1(O)CC1)C(=O)c1ccc2c([S+](C)[O-])cn(-c3ncc(-c4ccccc4F)cn3)c2c1 (stereo not drawn) [Example 250, 1-(5-(2-Fluorophenyl)pyrimidin-2-yl)-N-((1-hydroxycyclopropyl)methyl)-N-methyl-3-(methylsulfinyl)-1H-indole-6-carboxamide]
